Measurements from patent publication US20110086834A1, “ALKYNYL ALCOHOLS AS KINASE INHIBITORS” (AMGEN INC., priority 2008, published 2011).
pKi: −log10 of the molar value.

Target: T1, NIK (Homo sapiens, UniProt Q99558)
T1 construct: Both assays utilize a truncated form of NIK containing only the catalytic domain; made in house; host or cells: baculovirus expression system (insect cells implied)
Test: homogenous time resolved fluorescence (HTRF) assay for NIK Ki measurement
Assay type: biochemical
Details: truncated NIK (catalytic domain only), autophosphorylation; 10 nM enzyme; 20, 100, 200 or 500 μM ATP; room temperature, 2 hours; read-out: Ki activity in the homogenous time resolved fluorescence (HTRF) assay for NIK

T1 sequence (Q99558 400-655 limits assumed): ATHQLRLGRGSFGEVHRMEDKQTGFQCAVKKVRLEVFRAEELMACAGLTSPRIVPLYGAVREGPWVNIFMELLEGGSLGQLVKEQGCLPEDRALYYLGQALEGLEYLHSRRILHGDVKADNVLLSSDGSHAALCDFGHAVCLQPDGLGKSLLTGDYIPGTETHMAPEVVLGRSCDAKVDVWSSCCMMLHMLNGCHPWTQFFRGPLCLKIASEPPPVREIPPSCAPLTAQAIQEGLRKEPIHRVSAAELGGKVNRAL

Row | pKi | Structure (SMILES)
1 | > 6.00 | Cn1cc(-c2nc(N)ncc2Cl)c2cc(C#CC(C)(O)c3nccs3)ccc21 (stereo not drawn) [Example 116, 4-(3-(2-amino-5-chloropyrimidin-4-yl)-1-methyl-1H-indol-5-yl)-2-(thiazol-2-yl)but-3-yn-2-ol]
2 | > 6.00 | C[C@@](O)(C#Cc1ccc2[nH]cc(-c3ccncn3)c2c1)c1nccs1 [Example 117, (2R)-4-(3-(pyrimidin-4-yl)-1H-indol-5-yl)-2-(thiazol-2-yl)but-3-yn-2-ol]
3 | > 6.00 | Cn1cc(-c2ccncn2)c2cc(C#CC(C)(O)c3cscn3)ccc21 (stereo not drawn) [Example 118, 4-(1-methyl-3-(pyrimidin-4-yl)-1H-indol-5-yl)-2-(thiazol-4-yl)but-3-yn-2-ol]
4 | > 6.00 | CC(C)C(=O)n1cc(-c2nc(N)ncc2Cl)c2cc(C#CC3(O)CCCC3)ccc21 [Example 119, 1-(3-(2-amino-5-chloropyrimidin-4-yl)-5-(2-(1-hydroxycyclopentyl)ethynyl)-1H-indol-1-yl)-2-methylpropan-1-one]
5 | > 6.00 | CC(=O)n1cc(-c2nc(N)ncc2Cl)c2cc(C#CC3(O)CCCC3)ccc21 [Example 120, 1-(3-(2-amino-5-chloropyrimidin-4-yl)-5-(2-(1-hydroxycyclopentyl)ethynyl)-1H-indol-1-yl)ethanone]
6 | > 6.00 | Nc1ncc(Cl)c(-c2cn(C(=O)C3CC3)c3ccc(C#CC4(O)CCCC4)cc23)n1 [Example 121, (3-(2-amino-5-chloropyrimidin-4-yl)-5-(2-(1-hydroxycyclopentyl)ethynyl)-1H-indol-1-yl)(cyclopropyl)methanone]
7 | > 6.00 | CC(C)(C)C(=O)n1cc(-c2nc(N)ncc2Cl)c2cc(C#CC3(O)CCCC3)ccc21 [Example 122, 1-(3-(2-amino-5-chloropyrimidin-4-yl)-5-(2-(1-hydroxycyclopentyl)ethynyl)-1H-indol-1-yl)-2,2-dimethylpropan-1-one]
8 | > 6.00 | COCCOCCn1cc(-c2nc(N)ncc2Cl)c2cc(C#CC3(O)CCCC3)ccc21 [Example 124, 1-(2-(3-(2-amino-5-chloropyrimidin-4-yl)-1-(2-(2-methoxyethoxy)ethyl)-1H-indol-5-yl)ethynyl)cyclopentanol]
9 | > 6.00 | COCCn1cc(-c2nc(N)ncc2Cl)c2cc(C#CC3(O)CCCC3)ccc21 [Example 125, 1-(2-(3-(2-amino-5-chloropyrimidin-4-yl)-1-(2-methoxyethyl)-1H-indol-5-yl)ethynyl)cyclopentanol]
10 | > 6.00 | Nc1ncc(Cl)c(-c2cn(CCN3CCOCC3)c3ccc(C#CC4(O)CCCC4)cc23)n1 [Example 126, 1-(2-(3-(2-amino-5-chloropyrimidin-4-yl)-1-(2-morpholinoethyl)-1H-indol-5-yl)ethynyl)cyclopentanol]
11 | > 6.00 | CCN(CC)CCn1cc(-c2nc(N)ncc2Cl)c2cc(C#CC3(O)CCCC3)ccc21 [Example 127, 1-(2-(3-(2-amino-5-chloropyrimidin-4-yl)-1-(2-(diethylamino)ethyl)-1H-indol-5-yl)ethynyl)cyclopentanol]
12 | > 6.00 | Nc1ncc(Cl)c(-c2cn(CC(=O)N3CCOCC3)c3ccc(C#CC4(O)CCCC4)cc23)n1 [Example 128, 2-(3-(2-amino-5-chloropyrimidin-4-yl)-5-(2-(1-hydroxycyclopentyl)ethynyl)-1H-indol-1-yl)-1-morpholinoethanone]
13 | > 6.00 | CCN(CC)C(=O)Cn1cc(-c2nc(N)ncc2Cl)c2cc(C#CC3(O)CCCC3)ccc21 [Example 129, 2-(3-(2-amino-5-chloropyrimidin-4-yl)-5-(2-(1-hydroxycyclopentyl)ethynyl)-1H-indol-1-yl)-N,N-diethylacetamide]
14 | > 6.00 | Nc1ncc(Cl)c(-c2cn(CCOCCOCCO)c3ccc(C#CC4(O)CCCC4)cc23)n1 [Example 130]
15 | > 6.00 | COCCOCCn1cc(-c2nc(N)ncc2Cl)c2cc(C#CC3(O)CCCCC3)ccc21 [Example 131, 1-(2-(3-(2-amino-5-chloropyrimidin-4-yl)-1-(2-(2-methoxyethoxy)ethyl)-1H-indol-5-yl)ethynyl)cyclohexanol]
